In data set [1] the test system is Goldblatt two-kidney renal hypertensive rats. In words: Test 1: antihypertensive activity, oral, tail-plethysmographic blood pressure in Goldblatt two-kidney renal hypertensive rats. Type of data set: in vivo, rat (male STD Wistar strain). To be noted: for change in vivo at 100 µmol/kg: Rattus norvegicus; for Peak time (time at which the maximum hypotensive effect was observed): renal hypertensive rats; for antihypertensive effect time course relative to compound 1 (SQ-14225), FIGS. 1 and 2: single oral, 0.015 millimole/kg and 0.1 millimole/kg, mean of six animals. An excerpt: The contralateral kidney and its renal artery were left intact. The animals were maintained on commercial rat chow and tap water ad libitum.
In each Figure, the ordinate represents the changes in blood pressure (mmHg) and the abscissa, the time (hours) elapsed after oral administration.

The nature of a further data set: in vivo. The note with it: mouse, in vivo. The text has this:
(§1) Male STD-ddY strain mice, weighing 21 to 24 grams, were used.

The test system of a further data set is mice. In words: Test 2: toxicity (acute LD50 in mice). To be noted: mice.
From the text: as §1

In data set [2] the test system is angiotensin I-converting enzyme. The note with it: Biochemistry, 16, 5484 (1977); cited from earlier work.
For data set [3] the test system is unchanged. To be noted: Science 196, 441 (1977); cited from earlier work.
Data set [4] concerns experimental hypertensive animals. To be noted: Science 196, 441 (1977); cited from earlier work.
Setting [5] is: oral, 0.1 millimole/kg, 7 hours after administration, % of initial blood pressure, read-out: Change in blood pressure, 7 hours after administration (%).
The mark [6] stands for this setting: oral, 0.1 millimole/kg, at peak time, % of initial blood pressure, read-out: Change in blood pressure, peak time (%).
Where [7] appears, read: oral, 0.1 millimole/kg, 7 hours after administration.
Setting [8] is: oral, 0.1 millimole/kg, at peak time.
The mark [9] stands for this setting: oral, 0.1 millimole/kg, positive = decrease.

Read-outs that look alike come from different tables or passages of the source.

As to `CCOC(=O)[C@H](Cc1ccc(O)cc1)NC(=O)[C@@H]1CCCN1C(=O)[C@H](C)CSC(C)=O` [H, 1-(D-3-Acetylthio-2-methylpropanoyl)-L-prolyl-L-tyrosine ethyl ester], the figures for the change in vivo at 100 µmol/kg in data set [1] (setting [5]) and in data set [1] (setting [6]) were -14% and -17%, respectively. For the same molecule, the “Change in blood pressure, 7 hours after administration” value (shortened to “Change in blood pressure, 7 hours”) in data set [1] (setting [7]) was -29 mmHg. Further, the “Change in blood pressure, peak time” value in data set [1] (setting [8]) is -34 mmHg. Further, the “Peak time (time at which the maximum hypotensive effect was observed)” value in data set [1] (oral, 0.1 millimole/kg) is 5 h.
The corresponding values for `CCSSC[C@@H](C)C(=O)N1CCC[C@H]1C(=O)N[C@@H](Cc1ccccc1)C(=O)O` [E, 1-(D-3-Ethyldithio-2-methylpropanoyl)-L-prolyl-L-phenylalanine] are -19%, -19%, -38 mmHg, -38 mmHg and 7 h.
The corresponding values for `C[C@H](CSC(=O)c1ccccc1)C(=O)N1CCC[C@H]1C(=O)N[C@@H](Cc1ccccc1)C(=O)O` [F, 1-(D-3-Benzoylthio-2-methylpropanoyl)-L-prolyl-L-phenylalanine] are -15%, -15%, -31 mmHg, -31 mmHg and 5 h.
As for `CC(=O)SC[C@@H](C)C(=O)N1CCC[C@H]1C(=O)N[C@@H](Cc1ccccc1)C(=O)O` [A, 1-(D-3-Acetylthio-2-methylpropanoyl)-L-prolyl-L-phenylalanine], the change in vivo at 100 µmol/kg in data set [1] (setting [5]) is -16%; in data set [1] (setting [6]), -17%. Moreover, the “Change in blood pressure, 7 hours” value in data set [1] (setting [7]) is given as -33 mmHg. Moreover, the “Change in blood pressure, peak time” value in data set [1] (setting [8]) was -35 mmHg. Further, the “Peak time (time at which the maximum hypotensive effect was observed)” value in data set [1] (oral, 0.1 millimole/kg) was 5 h. In addition, the “antihypertensive effect time course relative to compound 1 (SQ-14225), FIGS. 1 and 2” value in data set [1] was “milder and more prolonged antihypertensive effect”. In addition, the LD50 in the data set “in vivo” (iv) is above 1000 mg/kg; in the data set “in vivo” (po) it was above 6000 mg/kg. Further, the “toxicity (in words)” value in the data set with mice is reported as “very weak”.
As to `CC(C)C(=O)SC[C@@H](C)C(=O)N1CCC[C@H]1C(=O)N[C@@H](Cc1ccccc1)C(=O)O` [D, 1-[D-3-(2-Methylpropanoyl)thio-2-methylpropanoyl]-L-prolyl-L-phenylalanine], the change in vivo at 100 µmol/kg was -14% in data set [1] (setting [5]) and -18% in data set [1] (setting [6]). The “Change in blood pressure, 7 hours” value in data set [1] (setting [7]) is recorded as -29 mmHg. The “Change in blood pressure, peak time” value in data set [1] (setting [8]) is recorded as -37 mmHg. Also, in data set [1] (oral, 0.1 millimole/kg), the “Peak time (time at which the maximum hypotensive effect was observed)” value amounted to 5 h.
Turning to `CCC(=O)SC[C@@H](C)C(=O)N1CCC[C@H]1C(=O)N[C@@H](Cc1ccccc1)C(=O)O` [B, 1-(D-3-Propanoylthio-2-methylpropanoyl)-L-prolyl-L-phenylalanine], the change in vivo at 100 µmol/kg was -17% in data set [1] (setting [5]) and -18% in data set [1] (setting [6]). Also, in data set [1] (setting [7]), the “Change in blood pressure, 7 hours” value was -36 mmHg. The “Change in blood pressure, peak time” value in data set [1] (setting [8]) is -40 mmHg. In addition, in data set [1] (oral, 0.1 millimole/kg), the “Peak time (time at which the maximum hypotensive effect was observed)” value was 5 h. Besides, the “antihypertensive effect time course relative to compound 1 (SQ-14225), FIGS. 1 and 2” value in data set [1] was “milder and more prolonged antihypertensive effect”. In addition, the LD50 is above 1000 mg/kg in “in vivo” (iv) and above 6000 mg/kg in “in vivo” (po). Besides, in the data set with mice, the “toxicity (in words)” value is on record as “very weak”.
On to `CC(=O)SC[C@@H](C)C(=O)N1CCC[C@H]1C(N)=O` [Compound 3, 1-(D-3-Acetylthio-2-methylpropanoyl)-L-proline amide, reference compound], for which, in data set [1] (setting [5]), the change in vivo at 100 µmol/kg is -2%. Further, in data set [1] (setting [6]), the change in vivo at 100 µmol/kg was -4%. Besides, in data set [1] (oral, 0.1 millimole/kg), the “reduction of blood pressures (in words)” value is “did not reduce blood pressures” and the “Peak time (time at which the maximum hypotensive effect was observed)” value was found to be 2 h. Besides, the “Change in blood pressure, 7 hours” value in data set [1] (setting [7]) was -4 mmHg. Besides, the “Change in blood pressure, peak time” value in data set [1] (setting [8]) is listed as -7 mmHg.
With `C[C@H](CS)C(=O)N1CCC[C@H]1C(N)=O` [Compound 2, 1-(D-3-Mercapto-2-methylpropanoyl)-L-proline amide, reference compound], the change in vivo at 100 µmol/kg in data set [1] (setting [5]) was -1%. Moreover, the change in vivo at 100 µmol/kg in data set [1] (setting [6]) was -3%. For the same molecule, in data set [1] (oral, 0.1 millimole/kg), the “reduction of blood pressures (in words)” value was “did not reduce blood pressures” and the “Peak time (time at which the maximum hypotensive effect was observed)” value came to 2 h. Besides, the “Change in blood pressure, 7 hours” value in data set [1] (setting [7]) is reported as -1 mmHg. In addition, in data set [1] (setting [8]), the “Change in blood pressure, peak time” value is -5 mmHg.
For the molecule `CCOC(=O)[C@H](CCSC)NC(=O)[C@@H]1CCCN1C(=O)[C@H](C)CSC(C)=O` [J, 1-(D-3-Acetylthio-2-methylpropanoyl)-L-prolyl-L-methionine ethyl ester], the values for the change in vivo at 100 µmol/kg in data set [1] (setting [5]) and in data set [1] (setting [6]) were -13% and -15%, respectively. The “Change in blood pressure, 7 hours” value in data set [1] (setting [7]) is reported as -27 mmHg. Moreover, in data set [1] (setting [8]), the “Change in blood pressure, peak time” value is -30 mmHg. In addition, in data set [1] (oral, 0.1 millimole/kg), the “Peak time (time at which the maximum hypotensive effect was observed)” value worked out at 5 h.
For the molecule `C[C@H](CSC(=O)C(C)(C)C)C(=O)N1CCC[C@H]1C(=O)N[C@@H](Cc1ccccc1)C(=O)O` [C, 1-[D-3-(2,2-Dimethylpropanoyl)thio-2-methylpropanoyl]-L-prolyl-L-phenylalanine], the change in vivo at 100 µmol/kg was -18% in data set [1] (setting [5]) and -20% in data set [1] (setting [6]). In addition, the “Change in blood pressure, 7 hours” value in data set [1] (setting [7]) is -37 mmHg. The “Change in blood pressure, peak time” value in data set [1] (setting [8]) was -41 mmHg. The “Peak time (time at which the maximum hypotensive effect was observed)” value in data set [1] (oral, 0.1 millimole/kg) came to 5 h.
Take `COC(=O)[C@H](Cc1ccc(O)cc1)NC(=O)[C@@H]1CCCN1C(=O)[C@H](C)CSC(C)=O` [G, 1-(D-3-Acetylthio-2-methylpropanoyl)-L-prolyl-L-tyrosine methyl ester]: the figures for the change in vivo at 100 µmol/kg in data set [1] (setting [5]) and in data set [1] (setting [6]) were -15% and -17%, respectively. Further, the “Change in blood pressure, 7 hours” value in data set [1] (setting [7]) is recorded as -29 mmHg. Besides, the “Change in blood pressure, peak time” value in data set [1] (setting [8]) is -33 mmHg. Besides, in data set [1] (oral, 0.1 millimole/kg), the “Peak time (time at which the maximum hypotensive effect was observed)” value was determined as 5 h.
The corresponding values for `CCOC(=O)[C@H](Cc1c[nH]c2ccccc12)NC(=O)[C@@H]1CCCN1C(=O)[C@H](C)CSC(C)=O` [I, 1-(D-3-Acetylthio-2-methylpropanoyl)-L-prolyl-L-tryptophan ethyl ester] are -14%, -16%, -26 mmHg, -30 mmHg and 5 h.
As to `C[C@H](CS)C(=O)N1CCC[C@H]1C(=O)O` [Compound 1, 1-(D-3-Mercapto-2-methylpropanoyl)-L-proline, reference compound], the change in vivo at 100 µmol/kg in data set [1] (po, 7 h, read-out: Change in blood pressure, 7 hours after administration (%)) is -8%; in data set [1] (po, read-out: Change in blood pressure, peak time (%)), -18%. Besides, in data set [1] (setting [7]), the “Change in blood pressure, 7 hours” value is on record as -15 mmHg. Further, the “Change in blood pressure, peak time” value in data set [1] (setting [8]) is recorded as -35 mmHg. In data set [1] (setting [9]), the “decrease in initial blood pressure at 7 hours after medication” value is given as 8%. For the same molecule, the “maximum hypotensive response (decrease in initial blood pressure)” value in data set [1] (setting [9]) came to 18%. Moreover, in data set [2], the “inhibition of angiotensin I-converting enzyme in vitro” value is on record as “particularly good inhibitor of angiotensin I-converting enzyme”. In addition, the “inhibitory activity in vivo on angiotensin I-converting enzyme” value in data set [3] was “potent inhibitory activity in vivo”. In addition, the “antihypertensive activity in experimental hypertensive animals” value in data set [4] is “superior antihypertensive activity”.

The record behind these values is US4248883A, “1-(3-Mercapto-2-methylpropanoyl)prolyl amino acid derivatives and salts thereof, processes for their preparation, and pharmaceutical compositions containing such compounds” (Dainippon Pharmaceutical Co., Ltd., priority 1978, dated 1981).
